Series [1] can be described thus: in vivo. The settings on record: Sprague Dawley, rat, 7 mg powder.
For series [2] the following is noted: cited from earlier work.
The conditions of series [3]: cited from earlier work. This is another data set of the same source.
Another series deals with migraine. The settings on record: cited from earlier work.
The test system of series [4] is rat model of Parkinson's disease (unilateral 6-OHDA lesion). The series is described as follows: Bracing task. The series is classed as in vivo.
For series [5] the test system is unchanged. The series can be described thus: Rotation test. Format: in vivo. The method, then: Animals also were tested on a standard pharmacodynamics rotation test known to be a sensitive and reliable measure of dopamine activity in the brain. […] These doses were chosen for this test because they represent the doses of L-Dopa shown to produce maximal efficacy in the previous functional tests. Following dosing, animals were placed into a cylindrical Plexiglas bucket. […] Animals were also tested for rotation behavior with and without pre-treatment with carbidopa. […] Because the dopamine depletions are unilateral, the uninjected side remained intact and still able respond to changes in dopamine activity. When these animals were injected with a dopamine agonist (i.e. L-Dopa) brain dopamine activity was stimulated preferentially on the intact side. […] The onset and number of rotations provided a measure of both the time course as well as the extent of increased dopamine activity.

Series [6] is described as follows: in vivo. To be noted: rat; for bioavailability / bioavailability at 15 min / bioavailability at 60 min: 2 mg. How it is done:
Determinations of plasma levels of L-Dopa were made following IV injection, oral gavage, or insufflation into the lungs. Carbidopa generally is administered to ensure that peripheral decarboxylase activity is completely shut down. In this example, animals received an intraperitoneal (IP) injection of the peripheral decarboxylase inhibitor carbidopa (200 mg/kg) 1 hour prior to administration of L-Dopa. Under ketamine anesthesia, the animals were divided into 3 groups. In the first group of animals, L-Dopa (2 mg) was suspended in saline containing 1% methylcellulose and 1% ascorbic acid and given via oral gavage. In the second group, an insufflation technique was used for pulmonary administration of particles including L-Dopa (20% loading density). A laryngoscope was used to visualize the rat's epiglottis and the blunt-tip insufflation device (PennCentury Insufflation powder delivery device) was inserted into the airway. A bolus of air (3 cc), from an attached syringe, was used to delivery the pre-loaded powder from the chamber of the device into the animal's lungs. A total of 10 mg of powder (2 mg L-Dopa) was delivered. In the third group, a previously-placed femoral cannula was used to delivery a bolus (2-3 second) of L-Dopa (2 mg). Blood samples (200 μL) were withdrawn from each animal using the femoral cannula at the following timepoints: 0 (immediately prior to L-Dopa administration), 2, 5, 15, 30, 60, 120, and 240 minutes following L-Dopa administration. All samples were processed for L-Dopa determinations using HPLC.
Bioavailability was estimated by performing area under the curve (AUC) calculations.

Series [7] relates to rat model of Parkinson's disease (unilateral 6-OHDA lesion). The series is described as follows: Placing task. Format: in vivo.
Series [8] has the same test system. The series is described as follows: Akinesia task. The series is classed as in vivo.

Consider `CC(C(=O)O)c1cccc(C(=O)c2ccccc2)c1` (centres unmarked) [Ketoprofen], for which, in “in vivo [1]”, the concentration at 5 min was 9600 ng/mL, the concentration at 15 min was found to be 7600 ng/mL, the concentration at 30 min worked out at 5500 ng/mL and the concentration at 60 min worked out at 4500 ng/mL. In “in vivo [1]”, the concentration at 120 min amounted to 2400 ng/mL, the concentration at 240 min was determined as 1800 ng/mL, the concentration at 360 min came to 1800 ng/mL and the concentration at 480 min is 1300 ng/mL. In the series “in vivo [1]” (po), this molecule came in with a concentration at 5 min of 1700 ng/mL, a concentration at 15 min of 2100 ng/mL, a concentration at 30 min of 1900 ng/mL and a concentration at 60 min of 2000 ng/mL. Moreover, in “in vivo [1]” (po), the concentration at 120 min was determined as 1700 ng/mL, the concentration at 240 min worked out at 1400 ng/mL, the concentration at 360 min came to 1000 ng/mL and the concentration at 480 min turned out to be 1000 ng/mL. In addition, the “Tmax via the oral route” value in [2] (oral) is reported as “about 90 min”.
In the case of `Cc1nnc2n1-c1ccc(Cl)cc1C(c1ccccc1Cl)=NC2` [triazolam], in series [3] (alcohol), the solubility in alcohol entry is on record as “soluble”. For the same molecule, in series [3] (water), the solubility in water entry is recorded as “poorly soluble”.
`CNS(=O)(=O)Cc1ccc2[nH]cc(CCN(C)C)c2c1` [sumatriptan]: the efficacy rate with migraine (administered intravenously (IV)) is reported as 90%. In addition, in the series on migraine (oral form), the efficiency rate entry is “approximately 60%”.
Regarding `Cc1ccc(-c2nc3ccc(C)cn3c2CC(=O)N(C)C)cc1` [zolpidem], in series [2] (5 mg tablet), the Tmax (usually the time from dosing to the highest level) is 1.6 h and the “½ Life” value is 2.6 h. For the same molecule, in series [2] (in vivo), the “time to peak plasma levels” value is reported as “about 2 hours”.
As to `N[C@@H](Cc1ccc(O)c(O)c1)C(=O)O` [L-Dopa, levodopa], in series [4] (oral 30 mg/kg), the “time of maximal effects” value is at most 60 min and the “time to improved performance” value was at most 30 min. Besides, in series [4] (pulmonary), the “lowest dose with statistically significant improvements” value is 0.5 mg, the “time of peak benefits” value lay within 15 to 30 min and the “time to significant improvements” value is at most 10 min. Besides, the “time of peak rotations” value in series [5] (oral 30 mg/kg) is given as “approximately 30 minutes”. Besides, the “rotations during the first 10-15 minutes” value in series [5] (oral 30 mg/kg, carbidopa pre-treatment) is under 5 rotations/animal. Besides, the “time of peak rotations” value in series [5] (pulmonary 2 mg total) fell in the range of 25 to 30 min. The “rotations relative to oral delivery within the first 10-15 minutes” value in series [5] (pulmonary 2 mg total vs oral 30 mg/kg) is “greater than 3 times”. For the same molecule, in the series “in vivo [6]”, the concentration at 2 min was 5000 ng/mL; the bioavailability (in general, the share of a dose that reaches the circulation, judged against a reference dose that is usually intravenous) was about 75%; the bioavailability at 15 min was 38%; the bioavailability at 60 min is 62%. Also, in the series “in vivo [6]” (po), the concentration at 2 min is 1000 ng/mL, the bioavailability turned out to be 33%, the bioavailability at 15 min stood at 9% and the bioavailability at 60 min was 24%. In series [7] (30 mg/kg oral vs 1 mg pulmonary, normalized by body weight), the “difference in drug required for equivalent efficacy, oral vs pulmonary” value was about 10 fold. Also, the “time of maximal effects” value in series [7] (oral 20 mg/kg) came to 60 min. Besides, in series [7] (oral 30 mg/kg), the “time of peak performance” value lay in the range of 1 to 2 h and the “time to improved performance with impaired limb” value was at most 30 min. Also, in [7] (pulmonary), the “lowest dose with significant improvements” value is 0.5 mg. Besides, in series [7] (pulmonary, highest dose tested), the “time of peak benefits” value lay within 15 to 30 min and the “time to significant improvements” value was at most 10 min. In series [8] (oral 30 mg/kg), the “time of maximal effects” value was at most 60 min and the “time to improved performance” value is at most 30 min. In [8] (pulmonary), the “lowest dose with statistically significant (p<0.05) improvements” value stood at 1.0 mg, the “time of peak benefits” value fell in the range of 15 to 30 min and the “time to significant improvements” value is at most 10 min.

The record behind these values is patent US6613308B2, “Pulmonary delivery in treating disorders of the central nervous system” (Advanced Inhalation Research, Inc., priority 2000, dated 2003).
